{"source": "patent US20090306386A1", "about": "“Plant Extract Obtained by an Extraction Method by Means of Solvents of Plant Origin” (priority 2005, published 2009)", "system": "xanthine/xanthine oxidase", "assay": "antioxidant activity, xanthine/xanthine oxidase test", "assay_type": "biochemical", "conditions": "modified method of Rice Evans et al. and Masaki et al., n=10", "text": "The antioxidant activity of the turmeric extract obtained with solvent No. 2 (d-limonene) were studied using the xanthine/xanthine oxidase test according to the modified method of Rice Evans et al. (Techniques in free radical research, 1991, Elsevier, Paris) and Masaki et al. (Antioxygen scavenging activity of plant extracts, Biol. Pharm. Bull., 1995, 18 (1), 162-166).", "data": [{"smiles": "Oc1ncnc2[nH]ncc12", "note": "[allopurinol]", "values": [{"measurement": "antioxidant activity IC50", "value": 0.06, "unit": "%"}]}]}
